Measurements: US20250170127A1, “RE-SENSITIZING MULTIDRUG-RESISTANT (MDR) GRAM-NEGATIVE BACTERIA TO COLISTIN USING IONOPHORES” (The Regents of the University of Colorado, a body corporate, priority 2022, published 2025)
Several values for one entry are separate records, joined by “and”; a condition that tells them apart may be missing. Identical values can stand only once.

Experiments:
[1] = system: E. coli AR-0493; test: MIC, CLSI broth microdilution, substance alone; type: cell-based; settings: Escherichia coli, AR0493, read-out: MIC
Procedure: A MDR E. coli strain AR-0493 (a.k.a., ATCC BAA-3170) was obtained from the CDC and FDA Antibiotic Resistance Bank and used for the initial screen. […] Considering the difficulties on the discovery of novel antimicrobial reagents against Gram-negative bacteria, we chose to screen the fragment-based library of 3,200 compounds from TimTec (Tampa, FL). […] The screen used a modified broth microdilution assay.
These 10 compounds were tested for their MICs and minimum re-sensitizing concentrations (MRCs) in the presence colistin at 2 μg/mL in E. coli AR-0493. […] To evaluate their toxicity in mammalian cells, the present inventors treated human epithelial adenocarcinoma HeLa cells with each compound at a wide range of concentrations. […]
(§1) General Methods. MDR strains E. coli AR-0493, AR-0346, and AR-0538, Salmonella Enteritidis AR-0496, Salmonella Typhimurium AR-0635, K. pneumoniae AR-0497, A. baumannii AR-0300 and AR-0310 were all obtained from the CDC & FDA Antibiotic Resistance Isolate Bank. E. coli K-12 was a gift from the Copley lab (Department of MCD Biology, University of Colorado Boulder). HeLa cells were purchased from the ATCC. All bacterial strains were grown on trypticase soy agar supplemented with 5% sheep blood (BAP). Bacteria were then cultured in Luria-Bertani (LB) medium at 35° C. until they achieve the log phase before screening or antimicrobial testing using CAMHB media. MIC, MRC, and checkerboard analyses and mammalian growth inhibition analyses in Hela cells were performed as described previously. More details are given in Supporting information.

[2] = system: E. coli AR-0493; test: Minimum re-sensitizing concentration (MRC) in the presence of colistin; type: cell-based; settings: in AR-0493
Procedure: These 10 compounds were tested for their MICs and minimum re-sensitizing concentrations (MRCs) in the presence colistin at 2 μg/mL in E. coli AR-0493.
The present inventors further conducted MRC screens of selected compounds from groups 2-5 in AR-0493. Compound were tested against AR-0493 with compound X+2 μg/mL Colistin.
All compounds were tested for their respective minimum resensitizing concentrations (MRCs) for colistin against E. coli. AR0493, a MDR strain from CDC and FDA Antibiotic Resistance Bank. […] For the symmetrical bisanilino series, 7a-p, electron-donating alkyl and alkoxy groups (entries 7a-g, Table 5) at various positions of the phenyl rings were investigated. […] Three asymmetric bisanilino analogs (7q-s, Table 5) were synthesized based on the SARs of the monoanilino analogs 8a-p (vide infra).
as §1

[3] = in vitro; type: cell-based, human; settings: human
Procedure: (§2) These 10 compounds were tested for their MICs and minimum re-sensitizing concentrations (MRCs) in the presence colistin at 2 μg/mL in E. coli AR-0493. […] To evaluate their toxicity in mammalian cells, the present inventors treated human epithelial adenocarcinoma HeLa cells with each compound at a wide range of concentrations.
(§3) To evaluate the mammalian toxicity of these analogs, Applicants tested them in cell viability assay using human cervical adenocarcinoma HeLa cells. Their respective half maximal growth inhibition concentration (GI50) was calculated using KaleidaGraph. The selectivity index (SI) for each compound was also calculated as the ratio of their GI50 and MRC. […] Therefore, Applicants selected two bisanilino analogs, 7l and 7m, that bear chlorines at the meta- and para-positions, respectively, of the phenyl groups for further characterization studies. […]. […] Their mammalian toxicities were also evaluated, and SIs calculated. […] Applicants we next explored the scope of analogs 71 and 7m their colistin-potentiating activity in 8 different MDR Gram negative bacteria with diverse genetic backgrounds and resistance mechanisms (Table 7). All strains were obtained from CDC and FDA Antibiotic Resistance Bank. For example, E. coli AR-0493 and K. pneumoniae AR-0497 carry the plasmid that contains the most prevalent mcr-1 gene. E. coli AR-0538, Salmonella Typhimurium AR-0539 and AR-0635 contain the mcr-2, 3, and 4 genes, respectively. These genes encode the phosphoethanolamine transferase, which was originated form the chromosome of A. baumannii, such as AR-0310. […]. A. baumannii AR-0310 appears more sensitive to these two compounds and the MICs of colistin was reduced to 0.25 μg/mL.
as §1

[4] = system: HeLa cells; test: in vitro; type: cell-based, human; settings: GI50 in HeLa / MRC in AR-0493
Procedure: as §2, §3, §1

[5] = system: E. coli AR-0493; test: Checkerboard broth microdilution assay with colistin; type: cell-based
Procedure: FIG. 2. […] AR-0493. Data represent the mean OD (600 nm) in two biological replicates.
To further confirm the synergistic effect of compound 3 and colistin, the checkerboard broth microdilution assay was performed (FIG. 2).
as §1

[6] = system: A. baumannii AR-0310; test: Colistin MIC in the absence or presence of RMA compound; type: cell-based
Text: (§4) To investigate the scope of the colistin-potentiation effect of compound 3, the present inventors screened a panel of MDR Gram-negative bacteria obtained from the CDC and FDA Antibiotic Resistance Bank. These include a variety of Enterobacteriaceae spp., such as E. coli AR-0346 and AR-0538, K. pneumoniae AR-0497, Salmonella Enteritidis AR-0496, and Salmonella Typhimurium AR-0635. These strains all express the mcr genes (e.g., mcr-1, mcr-2, and mcr-4) and are resistant to colistin with its MICs of 8-16 μg/mL (Table 2). […] The only exception is Salmonella Typhimurium AR-0635, which expresses mcr-4 gene. […]. […]. Furthermore, the present inventors also tested the activity of colistin in the presence or absence of 1 μg/mL compound 3 in a wild-type E. coli K-12. […] The MICs of compound 3 in all these strains were >64 μg/mL, the highest concentration tested.
as §3, §1

[7] = system: E. coli AR-0493; test: as above; type: cell-based; settings: E. coli AR-0493
Text: as §4, §3, §1

[8] = system: E. coli AR-0538; test: as above; type: cell-based; settings: E. coli AR-0538
Text: as §4, §3, §1

[9] = system: K. pneumoniae AR-0497; test: as above; type: cell-based; settings: K. pneumoniae AR-0497
Text: as §4, §3, §1

[10] = system: Salmonella Typhimurium AR-0635; test: as above; type: cell-based; settings: Salmonella Typhimurium AR-0635
Text: as §4, §3, §1

[11] = system: P. aeruginosa AR-0768; test: as above; type: cell-based
Text: as §4

[12] = system: A. baumannii AR-0300; test: as above; type: cell-based
Text: as §4, §1

[13] = system: E. coli AR-0346; test: as above; type: cell-based; settings: E. coli AR-0346
Text: as §4, §1

[14] = system: E. coli K-12; test: as above; type: cell-based; settings: in the presence of 1 μg/mL of compound 3; E. coli K-12
Text: as §4, §1

[15] = system: Salmonella Enteritidis AR-0496; test: as above; type: cell-based; settings: Salmonella Enteritidis AR-0496
Text: as §4, §1

[16] = system: MDR Gram-negative bacteria; test: MICs across a panel of MDR Gram-negative bacteria (summary statements); type: cell-based
Text: as §4, §3, §1

[17] = in the presence of 1 μg/mL of compound 3
[18] = 1 μg/mL compound 3, almost all mcr-expressing Enterobacteriaceae strains of Table 2

Cc1cccc(Nc2nc3nonc3nc2Nc2cccc(C)c2)c1 [Compound 3]
MIC [1]: > 64 µg/mL | MRC [2]: 0.5 µg/mL | GI50 at 24 h [3]: 15 µg/mL | SI (Selective Index), ratio of GI50 and MRC [4]: 30 | fractional inhibitory concentration index (FICI) ([5]; compound and colistin, E. coli AR-0493): < 0.06 | potentiation of colistin in checkerboard assay ([5]; mean OD (600 nm), FIG. 2): dose-dependent potentiation of colistin | Folds of potentiation ([6]; 1 μg/mL of compound 3): 32 folds | Colistin MIC (+3) [6, 17]: 0.5 µg/mL | Folds of potentiation ([7]; 1 μg/mL of compound 3): 16 folds | Colistin MIC (+3) [7, 17]: 1 µg/mL | Folds of potentiation ([8]; 1 μg/mL of compound 3): 16 folds | Colistin MIC (+3) [8, 17]: 0.5 µg/mL | Folds of potentiation ([9]; 1 μg/mL of compound 3): 16 folds | Colistin MIC (+3) [9, 17]: 0.5 µg/mL | Folds of potentiation ([10]; 2 μg/mL of compound 3): 16 folds | Colistin MIC (+3) [10, 17]: 4 µg/mL | Colistin MIC (+3) ([10]; in the presence of 2 μg/mL of compound 3): 1 μg/mL and 1^c μg/mL | Folds of potentiation ([11]; 1 μg/mL of compound 3): 4 folds | Colistin MIC (+3) [11, 17]: 4 µg/mL | Folds of potentiation ([12]; 1 μg/mL of compound 3): 32 folds | Colistin MIC (+3) [12, 17]: 0.25 µg/mL | Folds of potentiation ([13]; 1 μg/mL of compound 3): 16 folds | Colistin MIC (+3) [13, 17]: 0.5 µg/mL | Colistin MIC (+3) [14]: 0.25 µg/mL | Folds of potentiation ([15]; 1 μg/mL of compound 3): 16 folds | Colistin MIC (+3) [15, 17]: 1 µg/mL | Colistin MIC (+3) [16, 18]: 0.5 to 1 µg/mL | folds of potentiation for colistin [16, 18]: 16 folds | MIC ([16]; compound alone, all strains of Table 2, highest concentration tested): > 64 µg/mL
